{"source": "paper PMC8766756", "about": "“Insights on Cancer Cell Inhibition, Subcellular Activities, and Kinase Profile of Phenylacetamides Pending 1H-Imidazol-5-One Variants” (Frontiers in Pharmacology, 2022)", "assay_in_all_cases": "PamChip tyrosine kinase microarray", "type_in_all_cases": "biochemical", "settings_in_all_cases": "0.1 µM, HL60 lysate", "key": {"BTK (Q06187)": {"biological_target": "T1, BTK (Q06187) (Homo sapiens, UniProt Q06187)", "T1 construct": "purchased PamGene (PamChip PTK array, Upstream Kinase Analysis)", "T1 sequence (Q06187 whole entry)": "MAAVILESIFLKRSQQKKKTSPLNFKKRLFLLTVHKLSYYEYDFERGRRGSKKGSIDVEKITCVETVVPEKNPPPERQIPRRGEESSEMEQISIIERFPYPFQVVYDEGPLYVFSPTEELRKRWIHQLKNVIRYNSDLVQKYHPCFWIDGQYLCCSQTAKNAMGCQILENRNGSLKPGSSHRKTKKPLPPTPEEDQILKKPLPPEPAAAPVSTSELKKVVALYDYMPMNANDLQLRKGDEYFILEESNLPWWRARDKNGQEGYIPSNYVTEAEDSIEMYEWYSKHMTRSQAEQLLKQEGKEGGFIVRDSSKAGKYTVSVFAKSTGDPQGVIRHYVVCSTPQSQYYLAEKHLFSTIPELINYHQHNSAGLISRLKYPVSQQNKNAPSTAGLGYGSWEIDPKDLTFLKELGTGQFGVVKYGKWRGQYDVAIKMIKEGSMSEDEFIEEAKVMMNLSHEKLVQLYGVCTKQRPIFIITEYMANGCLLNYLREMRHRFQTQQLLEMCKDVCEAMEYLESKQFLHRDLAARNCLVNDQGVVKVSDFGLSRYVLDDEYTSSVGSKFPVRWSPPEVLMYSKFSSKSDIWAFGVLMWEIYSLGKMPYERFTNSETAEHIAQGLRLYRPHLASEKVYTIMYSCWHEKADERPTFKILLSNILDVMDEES", "in_short": "(§1)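 HL60 (AML) cell lysate was spiked with compound at 0.001, 0.01, 0.1, 1, 10 and 50 µM, or 2% v/v DMSO as control, then profiled in technical replicates on a tyrosine kinase peptide array of 196 phosphosites. Kinase activity was inferred from peptide-set changes using an upstream kinase tool.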"}, "DDR1 (Q08345)": {"biological_target": "T2, DDR1 (Q08345) (Homo sapiens, UniProt Q08345)", "T2 construct": "purchased PamGene (PamChip PTK array, Upstream Kinase Analysis)", "T2 sequence (Q08345 19-913)": "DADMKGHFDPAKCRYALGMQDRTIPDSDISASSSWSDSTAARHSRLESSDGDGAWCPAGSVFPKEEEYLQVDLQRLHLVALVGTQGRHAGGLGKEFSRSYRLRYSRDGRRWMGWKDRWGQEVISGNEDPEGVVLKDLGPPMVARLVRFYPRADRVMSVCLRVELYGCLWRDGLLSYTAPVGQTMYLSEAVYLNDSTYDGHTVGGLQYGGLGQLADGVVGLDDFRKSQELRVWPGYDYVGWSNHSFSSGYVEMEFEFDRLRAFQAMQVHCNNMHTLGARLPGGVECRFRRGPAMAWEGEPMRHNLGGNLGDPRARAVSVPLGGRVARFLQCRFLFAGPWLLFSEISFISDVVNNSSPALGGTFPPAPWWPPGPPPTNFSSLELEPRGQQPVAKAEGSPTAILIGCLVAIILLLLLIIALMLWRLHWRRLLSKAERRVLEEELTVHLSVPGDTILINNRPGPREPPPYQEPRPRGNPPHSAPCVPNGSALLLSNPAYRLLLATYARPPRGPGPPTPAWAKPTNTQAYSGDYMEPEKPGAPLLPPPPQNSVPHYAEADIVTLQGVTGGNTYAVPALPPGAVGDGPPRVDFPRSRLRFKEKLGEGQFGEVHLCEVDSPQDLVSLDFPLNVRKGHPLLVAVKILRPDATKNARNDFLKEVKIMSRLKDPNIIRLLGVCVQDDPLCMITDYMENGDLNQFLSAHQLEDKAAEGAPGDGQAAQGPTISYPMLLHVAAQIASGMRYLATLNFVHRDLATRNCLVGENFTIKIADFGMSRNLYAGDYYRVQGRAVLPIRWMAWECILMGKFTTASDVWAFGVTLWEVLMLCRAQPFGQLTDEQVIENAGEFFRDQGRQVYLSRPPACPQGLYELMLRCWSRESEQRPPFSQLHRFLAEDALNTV", "in_short": "as §1"}, "Etk/BMX (P51813)": {"biological_target": "T3, Etk/BMX (P51813) (Homo sapiens, UniProt P51813)", "T3 construct": "purchased PamGene (PamChip PTK array, Upstream Kinase Analysis)", "T3 sequence (P51813 1-675)": "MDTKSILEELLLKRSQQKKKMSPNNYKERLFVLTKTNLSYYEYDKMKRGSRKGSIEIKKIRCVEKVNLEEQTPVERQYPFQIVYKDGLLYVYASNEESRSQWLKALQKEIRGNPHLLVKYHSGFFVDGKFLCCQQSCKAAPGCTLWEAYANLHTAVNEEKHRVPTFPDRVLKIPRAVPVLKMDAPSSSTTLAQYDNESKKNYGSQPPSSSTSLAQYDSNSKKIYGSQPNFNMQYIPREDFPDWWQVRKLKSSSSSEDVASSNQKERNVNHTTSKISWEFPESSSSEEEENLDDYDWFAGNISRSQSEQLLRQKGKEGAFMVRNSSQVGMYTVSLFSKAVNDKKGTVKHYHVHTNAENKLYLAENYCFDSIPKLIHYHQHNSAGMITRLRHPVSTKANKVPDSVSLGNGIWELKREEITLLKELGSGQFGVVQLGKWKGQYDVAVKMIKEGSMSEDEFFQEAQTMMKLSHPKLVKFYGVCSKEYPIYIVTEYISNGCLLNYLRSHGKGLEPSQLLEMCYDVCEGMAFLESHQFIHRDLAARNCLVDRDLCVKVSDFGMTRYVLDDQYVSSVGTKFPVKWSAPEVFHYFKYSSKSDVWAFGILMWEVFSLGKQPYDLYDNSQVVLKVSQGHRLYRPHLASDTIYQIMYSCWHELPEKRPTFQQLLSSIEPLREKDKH", "in_short": "as §1"}, "FAK2 (Q14289)": {"biological_target": "T4, FAK2 (Q14289) (Homo sapiens, UniProt Q14289)", "T4 construct": "purchased PamGene (PamChip PTK array, Upstream Kinase Analysis)", "T4 sequence (Q14289 whole entry)": "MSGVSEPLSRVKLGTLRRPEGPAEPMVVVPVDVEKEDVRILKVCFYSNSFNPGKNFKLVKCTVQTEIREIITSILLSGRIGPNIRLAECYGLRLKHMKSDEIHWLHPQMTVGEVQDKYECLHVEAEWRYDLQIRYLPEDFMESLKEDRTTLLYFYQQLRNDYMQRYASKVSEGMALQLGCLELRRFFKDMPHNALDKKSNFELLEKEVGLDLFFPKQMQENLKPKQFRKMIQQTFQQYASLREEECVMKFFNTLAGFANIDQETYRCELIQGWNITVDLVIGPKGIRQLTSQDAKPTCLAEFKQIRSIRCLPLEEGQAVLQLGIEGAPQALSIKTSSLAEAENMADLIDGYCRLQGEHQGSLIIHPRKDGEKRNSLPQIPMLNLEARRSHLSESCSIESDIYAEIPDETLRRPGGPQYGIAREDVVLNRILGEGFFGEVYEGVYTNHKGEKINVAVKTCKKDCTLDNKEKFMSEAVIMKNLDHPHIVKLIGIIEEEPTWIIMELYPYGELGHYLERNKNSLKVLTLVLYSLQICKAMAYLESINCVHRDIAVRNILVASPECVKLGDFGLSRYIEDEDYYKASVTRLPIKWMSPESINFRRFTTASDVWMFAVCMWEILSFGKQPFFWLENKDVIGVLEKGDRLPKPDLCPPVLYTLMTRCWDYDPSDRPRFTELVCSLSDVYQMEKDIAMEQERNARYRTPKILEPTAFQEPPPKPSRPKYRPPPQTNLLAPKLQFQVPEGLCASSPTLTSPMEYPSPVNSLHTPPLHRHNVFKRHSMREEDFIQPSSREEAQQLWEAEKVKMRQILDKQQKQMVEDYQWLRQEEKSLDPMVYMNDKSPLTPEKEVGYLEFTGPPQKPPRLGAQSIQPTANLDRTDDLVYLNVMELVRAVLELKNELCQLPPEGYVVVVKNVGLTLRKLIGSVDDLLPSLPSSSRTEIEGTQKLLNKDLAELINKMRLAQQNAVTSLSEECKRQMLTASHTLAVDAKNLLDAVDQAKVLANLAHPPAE", "in_short": "as §1"}, "FRK (P42685)": {"biological_target": "T5, FRK (P42685) (Homo sapiens, UniProt P42685)", "T5 construct": "purchased PamGene (PamChip PTK array, Upstream Kinase Analysis)", "T5 sequence (P42685 whole entry)": "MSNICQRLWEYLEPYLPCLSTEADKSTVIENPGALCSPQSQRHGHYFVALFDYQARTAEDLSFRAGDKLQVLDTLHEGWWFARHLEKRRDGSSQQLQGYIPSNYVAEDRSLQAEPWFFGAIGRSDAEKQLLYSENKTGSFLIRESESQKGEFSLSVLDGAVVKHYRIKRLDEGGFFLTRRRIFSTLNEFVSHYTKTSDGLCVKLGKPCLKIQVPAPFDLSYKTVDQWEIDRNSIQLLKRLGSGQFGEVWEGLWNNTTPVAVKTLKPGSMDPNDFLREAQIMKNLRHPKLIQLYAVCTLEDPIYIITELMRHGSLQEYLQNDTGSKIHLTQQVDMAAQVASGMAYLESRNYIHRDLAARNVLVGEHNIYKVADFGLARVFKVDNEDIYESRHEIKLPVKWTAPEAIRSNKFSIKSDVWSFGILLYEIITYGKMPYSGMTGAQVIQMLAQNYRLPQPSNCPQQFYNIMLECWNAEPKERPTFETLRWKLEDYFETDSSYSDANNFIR", "in_short": "as §1"}, "Fgr (P09769)": {"biological_target": "T6, Fgr (P09769) (Homo sapiens, UniProt P09769)", "T6 construct": "purchased PamGene (PamChip PTK array, Upstream Kinase Analysis)", "T6 sequence (P09769 whole entry)": "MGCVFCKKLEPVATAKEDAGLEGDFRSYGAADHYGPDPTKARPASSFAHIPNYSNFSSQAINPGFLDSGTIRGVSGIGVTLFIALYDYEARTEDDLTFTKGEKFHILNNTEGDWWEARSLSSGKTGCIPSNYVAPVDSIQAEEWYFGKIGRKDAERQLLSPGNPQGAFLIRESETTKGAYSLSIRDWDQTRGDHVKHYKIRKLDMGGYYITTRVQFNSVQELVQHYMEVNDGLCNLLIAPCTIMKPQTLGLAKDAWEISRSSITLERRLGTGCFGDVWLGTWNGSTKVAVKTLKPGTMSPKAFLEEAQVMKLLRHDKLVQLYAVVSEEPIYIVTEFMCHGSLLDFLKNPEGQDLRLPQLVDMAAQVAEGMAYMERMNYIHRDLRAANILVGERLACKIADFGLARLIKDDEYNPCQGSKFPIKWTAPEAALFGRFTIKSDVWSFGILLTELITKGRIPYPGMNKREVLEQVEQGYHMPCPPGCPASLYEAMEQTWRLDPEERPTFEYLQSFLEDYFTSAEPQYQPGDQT", "in_short": "as §1"}, "HCK (P08631)": {"biological_target": "T7, HCK (P08631) (Homo sapiens, UniProt P08631)", "T7 construct": "purchased PamGene (PamChip PTK array, Upstream Kinase Analysis)", "in_short": "as §1"}, "JAK2 (O60674)": {"biological_target": "T8, JAK2 (O60674) (Homo sapiens, UniProt O60674)", "T8 construct": "purchased PamGene (PamChip PTK array, Upstream Kinase Analysis)", "in_short": "as §1"}, "Lyn (P07948)": {"biological_target": "T9, Lyn (P07948) (Homo sapiens, UniProt P07948)", "T9 construct": "purchased PamGene (PamChip PTK array, Upstream Kinase Analysis)", "in_short": "as §1"}, "TRKA (P04629)": {"biological_target": "T10, TRKA (P04629) (Homo sapiens, UniProt P04629)", "T10 construct": "purchased PamGene (PamChip PTK array, Upstream Kinase Analysis)", "T10 sequence (P04629 33-796)": "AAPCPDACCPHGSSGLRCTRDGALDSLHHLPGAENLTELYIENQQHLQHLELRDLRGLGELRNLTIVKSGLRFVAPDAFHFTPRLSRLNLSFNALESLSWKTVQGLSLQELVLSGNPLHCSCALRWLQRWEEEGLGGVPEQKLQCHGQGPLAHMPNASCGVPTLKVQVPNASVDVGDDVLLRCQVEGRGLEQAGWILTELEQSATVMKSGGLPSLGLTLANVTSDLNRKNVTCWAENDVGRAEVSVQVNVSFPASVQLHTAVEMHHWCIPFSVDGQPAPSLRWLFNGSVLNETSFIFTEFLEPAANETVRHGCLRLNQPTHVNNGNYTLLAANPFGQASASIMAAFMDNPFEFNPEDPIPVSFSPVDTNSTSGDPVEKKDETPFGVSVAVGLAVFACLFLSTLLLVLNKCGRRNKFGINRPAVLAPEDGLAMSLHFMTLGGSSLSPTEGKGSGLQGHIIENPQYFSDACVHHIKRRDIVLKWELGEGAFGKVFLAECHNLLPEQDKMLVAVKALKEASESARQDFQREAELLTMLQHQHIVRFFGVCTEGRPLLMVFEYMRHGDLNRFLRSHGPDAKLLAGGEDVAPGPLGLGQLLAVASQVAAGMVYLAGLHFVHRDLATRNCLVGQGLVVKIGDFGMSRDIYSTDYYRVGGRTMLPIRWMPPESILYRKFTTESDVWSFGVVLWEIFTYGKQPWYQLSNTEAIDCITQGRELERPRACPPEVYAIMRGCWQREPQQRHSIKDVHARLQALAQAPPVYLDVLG", "in_short": "as §1"}, "Yes (P07947)": {"biological_target": "T11, Yes (P07947) (Homo sapiens, UniProt P07947)", "T11 construct": "purchased PamGene (PamChip PTK array, Upstream Kinase Analysis)", "T11 sequence (P07947 whole entry)": "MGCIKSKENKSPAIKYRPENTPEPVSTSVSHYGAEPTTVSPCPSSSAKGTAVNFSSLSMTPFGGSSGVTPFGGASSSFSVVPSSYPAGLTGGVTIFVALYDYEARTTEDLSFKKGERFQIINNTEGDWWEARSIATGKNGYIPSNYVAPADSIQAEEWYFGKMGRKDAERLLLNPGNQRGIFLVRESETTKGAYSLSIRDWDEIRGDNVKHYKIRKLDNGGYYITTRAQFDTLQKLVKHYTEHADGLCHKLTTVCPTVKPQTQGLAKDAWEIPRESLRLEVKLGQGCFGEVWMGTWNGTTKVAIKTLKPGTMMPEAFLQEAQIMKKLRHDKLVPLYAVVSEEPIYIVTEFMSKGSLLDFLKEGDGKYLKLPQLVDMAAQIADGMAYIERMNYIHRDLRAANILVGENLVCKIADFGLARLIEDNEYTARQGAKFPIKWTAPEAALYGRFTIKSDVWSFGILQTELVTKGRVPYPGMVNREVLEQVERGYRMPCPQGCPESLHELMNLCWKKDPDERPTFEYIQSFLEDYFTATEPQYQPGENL", "in_short": "as §1"}}, "note": "Several values for one entry are separate records, joined by “and”; a condition that tells them apart may be missing. Equal entries are not always repeated.", "data": [{"smiles": "COc1ccc(/C=C2\\N=C(C)N(c3ccc(CC(=O)NCc4ccccc4)cc3)C2=O)cc1", "note": "[Compound 4c, (Z)-N-Benzyl-2-(4-(4-(4-methoxybenzylidene)-2-methyl-5-oxo-4,5-dihydro-1H-imidazol-1-yl)phenyl)acetamide]", "values": [{"measurement": "Mean Significance Score", "setting": "BTK (Q06187)", "value": 1.957}, {"measurement": "Mean Specificity Score", "setting": "BTK (Q06187)", "value": 0.668}, {"measurement": "Mean Final score (Kinase score)", "setting": "BTK (Q06187); listed as KIM-161", "value": "2.76 and 2.762"}, {"measurement": "Mean Final score (Kinase score)", "setting": "DDR1 (Q08345)", "value": 2.262}, {"measurement": "Mean Kinase Statistic", "setting": "DDR1 (Q08345)", "value": -1.216}, {"measurement": "Mean Significance Score", "setting": "DDR1 (Q08345)", "value": 1.955}, {"measurement": "Mean Specificity Score", "setting": "DDR1 (Q08345)", "value": 0.3662}, {"measurement": "Mean Final score (Kinase score)", "setting": "Etk/BMX (P51813)", "value": 2.196}, {"measurement": "Mean Kinase Statistic", "setting": "Etk/BMX (P51813)", "value": -1.111}, {"measurement": "Mean Significance Score", "setting": "Etk/BMX (P51813)", "value": 2.048}, {"measurement": "Mean Specificity Score", "setting": "Etk/BMX (P51813)", "value": 0.1452}, {"measurement": "Mean Final score (Kinase score)", "setting": "FAK2 (Q14289)", "value": 2.241}, {"measurement": "Mean Kinase Statistic", "setting": "FAK2 (Q14289)", "value": -1.142}, {"measurement": "Mean Significance Score", "setting": "FAK2 (Q14289)", "value": 2.048}, {"measurement": "Mean Specificity Score", "setting": "FAK2 (Q14289)", "value": 0.216}, {"measurement": "Mean Significance Score", "setting": "FRK (P42685)", "value": 2.048}, {"measurement": "Mean Specificity Score", "setting": "FRK (P42685)", "value": 1.533}, {"measurement": "Mean Final score (Kinase score)", "setting": "FRK (P42685); listed as KIM-161", "value": "3.45 and 3.453"}, {"measurement": "Mean Final score (Kinase score)", "setting": "Fgr (P09769)", "value": 2.293}, {"measurement": "Mean Kinase Statistic", "setting": "Fgr (P09769)", "value": -1.161}, {"measurement": "Mean Significance Score", "setting": "Fgr (P09769)", "value": 1.8658}, {"measurement": "Mean Specificity Score", "setting": "Fgr (P09769)", "value": 0.2752}, {"measurement": "Mean Final score (Kinase score)", "setting": "HCK (P08631)", "value": 1.871}, {"measurement": "Mean Kinase Statistic", "setting": "HCK (P08631)", "value": -1.0936}, {"measurement": "Mean Significance Score", "setting": "HCK (P08631)", "value": 1.7269}, {"measurement": "Mean Specificity Score", "setting": "HCK (P08631)", "value": 0.1451}, {"measurement": "Mean Significance Score", "setting": "JAK2 (O60674)", "value": 2.048}, {"measurement": "Mean Specificity Score", "setting": "JAK2 (O60674)", "value": 1.216}, {"measurement": "Mean Final score (Kinase score)", "setting": "JAK2 (O60674); listed as KIM-161", "value": "3.19 and 3.191"}, {"measurement": "Mean Kinase Statistic", "setting": "JAK2 (O60674); listed as KIM-161", "value": "−1.43"}, {"measurement": "Mean Final score (Kinase score)", "setting": "Lyn (P07948)", "value": 2.229}, {"measurement": "Mean Kinase Statistic", "setting": "Lyn (P07948)", "value": -1.195}, {"measurement": "Mean Significance Score", "setting": "Lyn (P07948)", "value": 1.851}, {"measurement": "Mean Specificity Score", "setting": "Lyn (P07948)", "value": 0.3437}, {"measurement": "Mean Final score (Kinase score)", "setting": "TRKA (P04629)", "value": 2.339}, {"measurement": "Mean Kinase Statistic", "setting": "TRKA (P04629)", "value": -1.138}, {"measurement": "Mean Significance Score", "setting": "TRKA (P04629)", "value": 2.048}, {"measurement": "Mean Specificity Score", "setting": "TRKA (P04629)", "value": 0.2694}, {"measurement": "Mean Final score (Kinase score)", "setting": "Yes (P07947)", "value": 1.8671}, {"measurement": "Mean Kinase Statistic", "setting": "Yes (P07947)", "value": -0.9897}, {"measurement": "Mean Significance Score", "setting": "Yes (P07947)", "value": 1.824}, {"measurement": "Mean Specificity Score", "setting": "Yes (P07947)", "value": 0.04992}]}]}
